Experimental data published in paper doi:10.1101/2024.05.17.594698v1 (bioRxiv, 2024).
Where a SMILES comes first, the peptide text is derived from it.

Assays:
[1] = system: telomerase in human CD4+ Tsen; test: Telomerase activity; type: cell-based; settings: Tsen 3 days after DOS treatment; Fig S4I, n = 5 donors
[2] = target: T1, GATOR/mTOR complex proteins (MIOS and WDR59) (Homo sapiens, UniProt Q6PJI9+Q9NXC5); test: Biotinylated DOS pull down from human CD4+ T cell extracts; type: binding; settings: overnight treatment, streptavidin IP, western blot, Fig 1H
T1 sequence (Q9NXC5 1-875): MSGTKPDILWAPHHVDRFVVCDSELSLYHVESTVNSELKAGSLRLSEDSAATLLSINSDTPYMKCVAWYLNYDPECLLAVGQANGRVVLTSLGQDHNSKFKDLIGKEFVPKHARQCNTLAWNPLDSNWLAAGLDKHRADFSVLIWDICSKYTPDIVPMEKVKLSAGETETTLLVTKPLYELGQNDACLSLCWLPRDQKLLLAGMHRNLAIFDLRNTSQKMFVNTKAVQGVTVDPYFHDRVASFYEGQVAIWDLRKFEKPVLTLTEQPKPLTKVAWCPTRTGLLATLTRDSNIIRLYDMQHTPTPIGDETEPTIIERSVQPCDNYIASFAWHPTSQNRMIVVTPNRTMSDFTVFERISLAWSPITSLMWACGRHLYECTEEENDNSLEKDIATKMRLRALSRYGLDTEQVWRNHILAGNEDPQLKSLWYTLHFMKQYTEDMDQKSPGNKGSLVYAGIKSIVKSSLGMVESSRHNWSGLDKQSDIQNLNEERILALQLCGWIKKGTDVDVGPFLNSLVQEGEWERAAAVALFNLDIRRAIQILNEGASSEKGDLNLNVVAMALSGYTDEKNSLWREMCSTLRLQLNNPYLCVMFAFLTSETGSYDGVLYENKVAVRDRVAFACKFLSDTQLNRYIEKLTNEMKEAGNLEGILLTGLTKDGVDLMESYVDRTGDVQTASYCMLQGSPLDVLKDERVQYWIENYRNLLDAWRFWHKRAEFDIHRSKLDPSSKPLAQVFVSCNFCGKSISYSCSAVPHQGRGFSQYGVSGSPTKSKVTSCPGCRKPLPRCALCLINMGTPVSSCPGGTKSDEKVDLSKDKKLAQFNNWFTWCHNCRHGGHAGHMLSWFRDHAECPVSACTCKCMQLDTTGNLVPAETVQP
T1 sequence (Q6PJI9 1-974): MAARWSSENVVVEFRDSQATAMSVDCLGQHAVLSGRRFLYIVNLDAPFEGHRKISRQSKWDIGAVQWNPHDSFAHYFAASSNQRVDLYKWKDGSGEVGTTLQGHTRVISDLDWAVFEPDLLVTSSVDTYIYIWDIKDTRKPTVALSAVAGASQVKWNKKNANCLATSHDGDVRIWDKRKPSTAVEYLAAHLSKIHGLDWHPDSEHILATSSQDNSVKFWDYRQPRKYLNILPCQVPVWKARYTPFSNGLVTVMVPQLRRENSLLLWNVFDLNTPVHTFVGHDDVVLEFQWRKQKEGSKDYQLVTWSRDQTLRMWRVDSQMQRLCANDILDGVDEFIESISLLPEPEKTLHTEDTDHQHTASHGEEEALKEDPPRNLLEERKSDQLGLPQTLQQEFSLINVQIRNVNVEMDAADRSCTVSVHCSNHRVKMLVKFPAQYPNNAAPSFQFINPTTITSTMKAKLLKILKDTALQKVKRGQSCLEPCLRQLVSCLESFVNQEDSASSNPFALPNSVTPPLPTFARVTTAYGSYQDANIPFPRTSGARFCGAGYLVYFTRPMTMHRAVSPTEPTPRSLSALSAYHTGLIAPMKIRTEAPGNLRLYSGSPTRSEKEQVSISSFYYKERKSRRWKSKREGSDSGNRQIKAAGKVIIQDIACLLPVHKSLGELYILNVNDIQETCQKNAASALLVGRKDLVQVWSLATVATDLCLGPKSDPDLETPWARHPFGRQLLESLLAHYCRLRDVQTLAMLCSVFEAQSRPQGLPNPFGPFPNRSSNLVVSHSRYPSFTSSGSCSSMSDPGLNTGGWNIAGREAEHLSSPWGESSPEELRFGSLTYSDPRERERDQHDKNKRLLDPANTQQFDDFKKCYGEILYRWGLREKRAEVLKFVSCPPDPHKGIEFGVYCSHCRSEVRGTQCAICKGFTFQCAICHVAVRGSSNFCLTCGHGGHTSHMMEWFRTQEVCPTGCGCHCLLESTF

AMPK in human CD4+ Tsen = test: AMPK activity as ACC phosphorylation; type: cell-based; settings: 4 hours after DOS 10 µM treatment; Fig S3I right, blot number
AMPK1-His-tagged = AMPK1-His-tagged (Homo sapiens, UniProt Q13131); test: In vitro pull down with biotinylated DOS, recombinant tagged proteins; type: binding; settings: DOS-biotin 10 µM, streptavidin beads; Fig 1C
Sequence of AMPK1-His-tagged (Q13131 whole entry): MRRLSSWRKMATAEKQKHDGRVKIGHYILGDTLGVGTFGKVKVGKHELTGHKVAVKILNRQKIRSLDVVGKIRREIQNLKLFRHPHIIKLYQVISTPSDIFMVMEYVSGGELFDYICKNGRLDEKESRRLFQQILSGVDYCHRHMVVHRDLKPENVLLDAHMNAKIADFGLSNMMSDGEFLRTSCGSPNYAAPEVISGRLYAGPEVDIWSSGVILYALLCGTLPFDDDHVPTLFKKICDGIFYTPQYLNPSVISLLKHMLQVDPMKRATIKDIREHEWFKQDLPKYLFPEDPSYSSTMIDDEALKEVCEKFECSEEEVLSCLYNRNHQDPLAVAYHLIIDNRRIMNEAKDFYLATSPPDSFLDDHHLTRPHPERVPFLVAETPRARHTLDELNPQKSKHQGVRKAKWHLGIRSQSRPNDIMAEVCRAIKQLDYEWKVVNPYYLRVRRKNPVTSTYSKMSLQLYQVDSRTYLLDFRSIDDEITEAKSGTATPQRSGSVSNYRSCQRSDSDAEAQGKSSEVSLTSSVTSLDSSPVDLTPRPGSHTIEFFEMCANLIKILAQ

H1N1 virus = settings: mouse, in vivo
[3] = system: primary T cell sMAC composed of sestrin and MAPK kinases; test: Biotinylated DOS pull down from human CD4+ T cell extracts; type: binding; settings: overnight treatment, streptavidin IP, western blot, Fig 1H
[4] = target: T2, ERK, JNK and p38 MAPK in Tsen sestrin 2 immunoprecipitates (sMACs) (Homo sapiens, UniProt P58004); test: ELISA-based in vitro kinase assay on sestrin 2 immunoprecipitates; type: biochemical; settings: DOS 10 µM, 30 minutes, ATP 200 μM; Fig 1I, n = 5 donors
T2 sequence (P58004 1-480): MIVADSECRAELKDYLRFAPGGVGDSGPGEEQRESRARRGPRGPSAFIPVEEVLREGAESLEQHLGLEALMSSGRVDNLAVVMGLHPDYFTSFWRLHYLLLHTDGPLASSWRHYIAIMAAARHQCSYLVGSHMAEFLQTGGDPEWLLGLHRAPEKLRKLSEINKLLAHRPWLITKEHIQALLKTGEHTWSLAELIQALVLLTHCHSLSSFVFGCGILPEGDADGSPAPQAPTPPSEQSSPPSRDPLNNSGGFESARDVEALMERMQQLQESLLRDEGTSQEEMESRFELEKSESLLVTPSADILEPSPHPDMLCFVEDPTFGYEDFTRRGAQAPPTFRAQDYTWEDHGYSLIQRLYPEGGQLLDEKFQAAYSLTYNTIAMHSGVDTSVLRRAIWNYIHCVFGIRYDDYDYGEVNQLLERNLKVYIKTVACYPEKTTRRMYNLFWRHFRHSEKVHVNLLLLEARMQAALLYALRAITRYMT

[5] = Observation of autoimmunity in pre-clinical cohorts; type: in vivo; settings: large pre-clinical cohorts (over 400 animals)
human CD4+ T cells = test: Cellular toxicity by Annexin V / PI staining; type: cell-based; settings: DOS 10 µM; Fig S4J, n = 4 donors
[6] = system: recombinant sestrins (sestrin1-FLAG, sestrin2-FLAG); test: In vitro pull down with biotinylated DOS, recombinant tagged proteins; type: binding; settings: DOS-biotin 10 µM, streptavidin beads, anti-flag immunoblot; Fig 1C
[7] = system: primary human CD4+ T cells; test: DOS-FITC incorporation by flow cytometry; type: cell-based; settings: T cells depleted of all three sestrins by shRNAs; Fig 1F

## CC[C@H](C)[C@@H]1NC(=O)[C@H](Cc2ccccc2)NC(=O)[C@H](C)NC(=O)[C@H](C(C)C)NC(=O)[C@@H]2CCCN2C1=O [DOS] (cyclo(AFIPV))
[1]
  Telomerase activity: not affected
[2]
  Binding to GATOR/mTOR complex proteins: not to GATOR/mTOR complex proteins
AMPK in human CD4+ Tsen
  p-ACC/ACC by immunoblotting, fold change to untreated control set as 1: 0.25
AMPK1-His-tagged
  Direct binding to recombinant AMPK: not AMPK
H1N1 virus
  Lung necrosis after H1N1 infection: no sign of lung necrosis
[3]
  Binding to primary T cell sMAC: directly bound
[4]
  ERK, JNK and p38 MAPK kinase activity (autophosphorylation) in sMAC: suppressed
[5]
  Spontaneous autoimmunity: yet to see any autoimmunity case
Human CD4+ T cells
  Cell damage or death (Annexin-propidium iodide staining): did not cause cell damage or death
[6]
  Direct binding to recombinant sestrins: direct DOS binding to sestrins
[7]
  DOS entrance in sestrin-null T cells: did not enter
